Test results from patent US10894817B2, “Fatty acid modified urocortin-2 analogs for the treatment of diabetes and chronic kidney disease” (priority 2016, dated 2021).
Where two headings read alike, the source gives them in different places. Starred links: 1 amine or outer side, 2 acyl side, 3 side chain; linkers in the order of their positions; H or OH if unused. Residues, ends and D or L forms follow the SMILES beside them. Groups on a side chain read outwards from the residue. *: point of attachment. γGlu = O=C(O)[C@H](CCC(=O)[*:2])N[*:1]; Palmitoyl = CCCCCCCCCCCCCCCC(=O)*

Biological target: T1, human CRHR2b (Homo sapiens, UniProt Q13324)
T1 construct: expressed in transfected cells; host or cells: Chinese Hamster Ovary (CHO) cells, transient transfection
T1 sequence (Q13324 1-438 isoform Q13324-2): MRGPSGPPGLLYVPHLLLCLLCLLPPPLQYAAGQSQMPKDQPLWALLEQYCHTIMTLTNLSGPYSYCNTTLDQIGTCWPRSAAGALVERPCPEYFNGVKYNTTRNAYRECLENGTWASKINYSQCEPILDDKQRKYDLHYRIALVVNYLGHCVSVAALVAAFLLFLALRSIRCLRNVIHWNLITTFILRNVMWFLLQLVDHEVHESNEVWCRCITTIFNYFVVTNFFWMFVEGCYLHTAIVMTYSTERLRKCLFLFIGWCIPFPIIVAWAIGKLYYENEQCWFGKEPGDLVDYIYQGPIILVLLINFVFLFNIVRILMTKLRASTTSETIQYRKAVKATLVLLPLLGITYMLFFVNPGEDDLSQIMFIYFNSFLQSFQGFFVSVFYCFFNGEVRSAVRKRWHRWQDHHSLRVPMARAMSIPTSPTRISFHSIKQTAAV
Test: human CRHR2b cell-based cAMP assay
Method: CRHR agonistic activity is measured in a cell-based cAMP assay. Serial dilutions of the test peptides are made in assay buffer containing Hank's Balanced Salt Solution (HBSS, without phenol red) supplemented with 20 mM HEPES and 0.05% lactalbumin enzymatic hydrolysate (LAH) (“assay buffer”). […] A one to three dilution of the test peptides is used in both assays. Receptor over-expressing Chinese Hamster Ovary (CHO) cell line is used for the human CRHR2b assay. […] AF011406.1). Forty-eight hours after the transfection, the cells are centrifuged to remove the culture media and resuspended in fetal bovine serum containing 5% DMSO. They are cryofrozen and stored in vials in liquid nitrogen (20×10^6 cells/ml/vial). On the day of the assay, cells are thawed and resuspended in cold 30 ml culture media supplemented with 20 mM HEPES. The cells are then centrifuged to remove the media and washed once with HBSS supplemented with 20 mM HEPES. Finally, following the last centrifugation, the cells are resuspended in assay buffer. Thirty-thousand cells are used in the human CRHR2b assay for each treatment. The cells are dispensed into Costar 96-well black polystyrene half area EIA/RIA plates (Corning Incorporated, Corning, N.Y.) followed by the addition of the diluted peptides, each at a volume of 20 μL. The agonist induced cAMP levels are detected using a HTRF cAMP Dynamic 2 kit (CisBio, Bedford, Mass.). After incubation at 37° C. for 30 min, the assay is stopped by cell lysis via the addition of 20 μL of d2-labeled cAMP and followed by 20 μL of cryptate-labeled anti-cAMP antibody, as described by the manufacturer. Cellular cAMP (as a result of agonist stimulation) competes with the d2-labeled cAMP for binding to the antibody. HTRF detection is performed on an Envision plate reader (Perkin Elmer Life and Analytical Sciences, Waltham, Mass.) by measuring ratiometric emission at 620 and 665 nm after excitation at 320 nm. The data are converted to picomoles of cAMP using a standard curve obtained from the same assay performed with varying concentrations of unlabeled cAMP. […] The data are analyzed using a Curve Fitting Tool to calculate ED50. Numeric values shown below in Table 1 represent the mean of multiple runs (number of runs shown in parentheses) following the mean value±SEM.

[1] = cAMP assay, Table 26, compounds of Example 9, read-out: hCRHR2b Average EC50

Compound | EC50 [1] [nM] | EC50 [nM]
CCCCCCCCCCCCCCCC(=O)N[C@@H](CCC(=O)NCCCC[C@H](NC(=O)[C@H](CCC(N)=O)NC(=O)[C@H](CC(C)C)NC(=O)[C@H](CC(C)C)NC(=O)CNC(=O)[C@@H](NC(=O)[C@@H]1CCCN1C(=O)[C@@H](NC(=O)[C@H](CC(=O)O)NC(=O)[C@H](CC(C)C)NC(=O)[C@H](CO)NC(=O)[C@H](CC(C)C)NC(=O)[C@@H](NC(=O)[C@@H](N)[C@@H](C)CC)C(C)C)C(C)C)[C@@H](C)CC)C(=O)N[C@@H](CC(C)C)C(=O)N[C@@H](CC(C)C)C(=O)N[C@@H](CCC(=O)O)C(=O)N[C@@H](CCC(N)=O)C(=O)N[C@@H](CCC(=O)O)C(=O)N[C@@H](CCCCN)C(=O)N[C@@H](CCC(N)=O)C(=O)N[C@@H](CCC(=O)O)C(=O)N[C@@H](CCCCN)C(=O)N[C@@H](CCC(=O)O)C(=O)N[C@@H](CCCCN)C(=O)N[C@@H](CCC(N)=O)C(=O)N[C@@H](CCC(N)=O)C(=O)N[C@@H](C)C(=O)N[C@H](C(=O)N[C@H](C(=O)N[C@@H](CC(N)=O)C(=O)N[C@@H](C)C(=O)N[C@@H](CCCNC(=N)N)C(=O)N[C@H](C(=O)N[C@@H](CC(C)C)C(=O)N[C@@H](C)C(=O)N[C@@H](CCCNC(=N)N)C(=O)N[C@H](C(N)=O)C(C)C)[C@@H](C)CC)[C@@H](C)O)[C@@H](C)O)C(=O)O [Compound 21] (H-IVLSLDVPIGLLQK([γGlu-Palmitoyl])LLEQEKQEKEKQQATTNARILARV-NH2) | 5.25 | 
CCCCCCCCCCCCCCCC(=O)N[C@@H](CCC(=O)NCCCC[C@H](NC(=O)[C@H](CC(C)C)NC(=O)[C@H](CC(C)C)NC(=O)[C@@H](NC(=O)[C@H](CCC(N)=O)NC(=O)[C@H](CC(C)C)NC(=O)[C@H](CC(C)C)NC(=O)CNC(=O)[C@@H](NC(=O)[C@@H]1CCCN1C(=O)[C@@H](NC(=O)[C@H](CC(=O)O)NC(=O)[C@H](CC(C)C)NC(=O)[C@H](CO)NC(=O)[C@H](CC(C)C)NC(=O)[C@@H](NC(=O)[C@@H](N)[C@@H](C)CC)C(C)C)C(C)C)[C@@H](C)CC)[C@@H](C)CC)C(=O)N[C@@H](CCC(N)=O)C(=O)N[C@@H](CCC(=O)O)C(=O)N[C@@H](CCCCN)C(=O)N[C@@H](CCC(N)=O)C(=O)N[C@@H](CCC(=O)O)C(=O)N[C@@H](CCCCN)C(=O)N[C@@H](CCC(=O)O)C(=O)N[C@@H](CCCCN)C(=O)N[C@@H](CCC(N)=O)C(=O)N[C@@H](CCC(N)=O)C(=O)N[C@@H](C)C(=O)N[C@H](C(=O)N[C@H](C(=O)N[C@@H](CC(N)=O)C(=O)N[C@@H](C)C(=O)N[C@@H](CCCNC(=N)N)C(=O)N[C@H](C(=O)N[C@@H](CC(C)C)C(=O)N[C@@H](C)C(=O)N[C@@H](CCCNC(=N)N)C(=O)N[C@H](C(N)=O)C(C)C)[C@@H](C)CC)[C@@H](C)O)[C@@H](C)O)C(=O)O [Compound 23] (H-IVLSLDVPIGLLQILLK([γGlu-Palmitoyl])QEKQEKEKQQATTNARILARV-NH2) |  | 17.9

Further lines, with some results ahead:

EC50 [1] [nM] | Compound | EC50 [nM]
1.2 | CCCCCCCCCCCCCCCC(=O)N[C@@H](CCC(=O)NCCCC[C@H](NC(=O)[C@@H](NC(=O)[C@H](CCC(N)=O)NC(=O)[C@H](CC(C)C)NC(=O)[C@H](CC(C)C)NC(=O)CNC(=O)[C@@H](NC(=O)[C@@H]1CCCN1C(=O)[C@@H](NC(=O)[C@H](CC(=O)O)NC(=O)[C@H](CC(C)C)NC(=O)[C@H](CO)NC(=O)[C@H](CC(C)C)NC(=O)[C@@H](NC(=O)[C@@H](N)[C@@H](C)CC)C(C)C)C(C)C)[C@@H](C)CC)[C@@H](C)CC)C(=O)N[C@@H](CC(C)C)C(=O)N[C@@H](CCC(=O)O)C(=O)N[C@@H](CCC(N)=O)C(=O)N[C@@H](CCC(=O)O)C(=O)N[C@@H](CCCCN)C(=O)N[C@@H](CCC(N)=O)C(=O)N[C@@H](CCC(=O)O)C(=O)N[C@@H](CCCCN)C(=O)N[C@@H](CCC(=O)O)C(=O)N[C@@H](CCCCN)C(=O)N[C@@H](CCC(N)=O)C(=O)N[C@@H](CCC(N)=O)C(=O)N[C@@H](C)C(=O)N[C@H](C(=O)N[C@H](C(=O)N[C@@H](CC(N)=O)C(=O)N[C@@H](C)C(=O)N[C@@H](CCCNC(=N)N)C(=O)N[C@H](C(=O)N[C@@H](CC(C)C)C(=O)N[C@@H](C)C(=O)N[C@@H](CCCNC(=N)N)C(=O)N[C@H](C(N)=O)C(C)C)[C@@H](C)CC)[C@@H](C)O)[C@@H](C)O)C(=O)O [Compound 22] (H-IVLSLDVPIGLLQIK([γGlu-Palmitoyl])LEQEKQEKEKQQATTNARILARV-NH2) | 
25.3 | CCCCCCCCCCCCCCCC(=O)N[C@@H](CCC(=O)NCCCC[C@H](NC(=O)[C@H](CCC(N)=O)NC(=O)[C@H](CCC(=O)O)NC(=O)[C@H](CC(C)C)NC(=O)[C@H](CC(C)C)NC(=O)[C@@H](NC(=O)[C@H](CCC(N)=O)NC(=O)[C@H](CC(C)C)NC(=O)[C@H](CC(C)C)NC(=O)CNC(=O)[C@@H](NC(=O)[C@@H]1CCCN1C(=O)[C@@H](NC(=O)[C@H](CC(=O)O)NC(=O)[C@H](CC(C)C)NC(=O)[C@H](CO)NC(=O)[C@H](CC(C)C)NC(=O)[C@@H](NC(=O)[C@@H](N)[C@@H](C)CC)C(C)C)C(C)C)[C@@H](C)CC)[C@@H](C)CC)C(=O)N[C@@H](CCCCN)C(=O)N[C@@H](CCC(N)=O)C(=O)N[C@@H](CCC(=O)O)C(=O)N[C@@H](CCCCN)C(=O)N[C@@H](CCC(=O)O)C(=O)N[C@@H](CCCCN)C(=O)N[C@@H](CCC(N)=O)C(=O)N[C@@H](CCC(N)=O)C(=O)N[C@@H](C)C(=O)N[C@H](C(=O)N[C@H](C(=O)N[C@@H](CC(N)=O)C(=O)N[C@@H](C)C(=O)N[C@@H](CCCNC(=N)N)C(=O)N[C@H](C(=O)N[C@@H](CC(C)C)C(=O)N[C@@H](C)C(=O)N[C@@H](CCCNC(=N)N)C(=O)N[C@H](C(N)=O)C(C)C)[C@@H](C)CC)[C@@H](C)O)[C@@H](C)O)C(=O)O [Compound 24, IVLSLDVPIGLLQILLEQK*KQEKEKQQATTNARILARV-NH2] (H-IVLSLDVPIGLLQILLEQK([γGlu-Palmitoyl])KQEKEKQQATTNARILARV-NH2) | 
63.5 | CCCCCCCCCCCCCCCC(=O)N[C@@H](CCC(=O)NCCCC[C@H](NC(=O)[C@H](CCC(=O)O)NC(=O)[C@H](CCC(N)=O)NC(=O)[C@H](CCC(=O)O)NC(=O)[C@H](CC(C)C)NC(=O)[C@H](CC(C)C)NC(=O)[C@@H](NC(=O)[C@H](CCC(N)=O)NC(=O)[C@H](CC(C)C)NC(=O)[C@H](CC(C)C)NC(=O)CNC(=O)[C@@H](NC(=O)[C@@H]1CCCN1C(=O)[C@@H](NC(=O)[C@H](CC(=O)O)NC(=O)[C@H](CC(C)C)NC(=O)[C@H](CO)NC(=O)[C@H](CC(C)C)NC(=O)[C@@H](NC(=O)[C@@H](N)[C@@H](C)CC)C(C)C)C(C)C)[C@@H](C)CC)[C@@H](C)CC)C(=O)N[C@@H](CCC(N)=O)C(=O)N[C@@H](CCC(=O)O)C(=O)N[C@@H](CCCCN)C(=O)N[C@@H](CCC(=O)O)C(=O)N[C@@H](CCCCN)C(=O)N[C@@H](CCC(N)=O)C(=O)N[C@@H](CCC(N)=O)C(=O)N[C@@H](C)C(=O)N[C@H](C(=O)N[C@H](C(=O)N[C@@H](CC(N)=O)C(=O)N[C@@H](C)C(=O)N[C@@H](CCCNC(=N)N)C(=O)N[C@H](C(=O)N[C@@H](CC(C)C)C(=O)N[C@@H](C)C(=O)N[C@@H](CCCNC(=N)N)C(=O)N[C@H](C(N)=O)C(C)C)[C@@H](C)CC)[C@@H](C)O)[C@@H](C)O)C(=O)O [Compound 25] (H-IVLSLDVPIGLLQILLEQEK([γGlu-Palmitoyl])QEKEKQQATTNARILARV-NH2) | 
